For data set [1] the following is noted: rat, oral Gymnopilus spectabilis (Chen et al.); cited from earlier work.
The conditions of data set [2]: in vivo; cited from earlier work.
For data set [3], the system named is rats. The data set is described as follows: Behavioral safety pharmacology study in rats. Type of data set: in vivo. The settings on record: rat. The protocol:
In a behavioral study in rats, single SC administration of 10, 25 or 50 mg/kg RE104 HCl induced significant acute, and reversible neuro-pharmacological effects; however, all observations were attributed to exaggerated pharmacologic effects at the serotonin receptor of the test article (i.e., SS). The incidence and duration of observations were dose related.

For data set [4], the system named is male rats. The data set is described as follows: Respiratory function study in male rats. The class given is in vivo, rat. The settings on record: single SC 10, 25, and 50 mg/kg. The protocol:
In a respiratory function study in male rats, at single SC doses of 10, 25, and 50 mg/kg, RE104 HCl produced increases in respiration rate (8-28%) and decreases in tidal volume (28-30%) and minute volume (24-31%). All these changes were transient and returned to pre-dose values by the 6-hour post-dose reading. Based upon the small magnitude and the transient nature of these changes, the changes were not considered adverse.

Data set [5] relates to conscious telemetered beagle dogs. The data set is described as follows: Cardiovascular study in conscious telemetered beagle dogs. The class given is in vivo. The settings on record: dog.
Data set [6] has as its target human ether-a-go-go-related gene (hERG) (Homo sapiens, UniProt Q12809). The data set is described as follows: hERG tail current assay. Type of data set: cell-based. The settings on record: 30 μM as zwitterion (highest concentration tested). A general note: The hERG channel carries a current that helps repolarise heart muscle cells.
Data set [7] can be described thus: GLP 14-day extended single SC dose toxicity study in rats. The settings on record: female, Sprague Dawley, rat, in vivo, subcutaneous. The protocol: (§1) In a GLP 14-day extended single SC dose toxicity study in rats, doses of 0 (PBS), 10, 25 and 75 mg/kg were evaluated. Animals were necropsied on Study Day 2 and Day 14 (also referred to as Recovery Day 13) post-dosing.
(§2) A non-GLP dose range study was performed in the dog in order to determine an MTD. Single SC doses of 7.5, 15 and 20 mg/kg were evaluated.

The test system of data set [8] is rats. The data set is described as above. The protocol:
as §1, §2

Data set [9] relates to healthy females. The data set is described as follows: Phase 1 FIH single ascending dose study: safety and tolerability (AEs). The class given is in vivo, human. On the procedure: (§3) The study was a double-blind, randomized, placebo-controlled Phase 1 single ascending dose study in up to 6 cohorts in healthy females. Eligibility was assessed during a screening period of up to 28 days prior to enrollment. For the treatment period, subjects were admitted to the clinical research unit (CRU) one day prior to the dosing (Day −1). On Day 1, all subjects will received the assigned SC dose of RE104 HCl or placebo in a fed state (after domiciling overnight and consuming a planned evening meal on Day −1 and morning meal on Day 1 while at the CRU). Subjects were allowed to select snacks from a planned menu from 4 hours following dosing. Subjects were discharged from the clinic on Day 2 (−24 hours post-dose) after all required study procedures were completed and if deemed medically fit. Subjects returned to the clinic on Day 10 (±2 days) for a follow up visit.
Six (6) cohorts were enrolled in the study. Six (6) single doses were tested in 6 cohorts (Cohort 1 to Cohort 6) of 8 healthy female subjects (6 active and 2 placebo), as indicated in FIG. 1 and Table 3.
The starting dose was 5.5 mg RE104 HCl. Sentinels were used in all cohorts. Within each cohort, 2 subjects were treated first: 1 subject received RE104 HCl and 1 subject received placebo.
The study was monitored by a safety review committee (SRC). […] Safety, tolerability, and available PK data were assessed by the SRC between each cohort before ascending to the next dose level (Table 3). After each cohort dosing was complete, the SRC met to discuss dose escalation. Escalation to the next higher dose level occurred only after evaluation of the safety and tolerability data up to and including at least 24 hours post-dose of all evaluable subjects in the previous dose cohort. Available PK results were requested for determination of dose escalation, as deemed necessary.
Dosing took place at a time point agreed to with the investigational pharmacy and acceptable to the investigator. RE104 HCl or placebo were administered as a SC injection in the upper arm. Subjects received RE104 HCl or placebo in a fed state. The time of administration of RE104 HCl or placebo was be recorded in the eCRF. The regimen used is outlined in Table 3.
Within each cohort, 2 sentinel subjects were treated first: 1 subject received RE104 HCl and 1 subject received placebo. […] All drug administration was be done under direct medical supervision. Study subjects were overseen during the potentially psychoactive study drug period by professionals trained to monitor psychedelic experiences.

For data set [10], the system named is healthy females. The data set is described as follows: Phase 1 FIH study: modified Drug Effect Questionnaire (DEQ-High). The class given is in vivo, human. On the procedure:
as §3
The Drug Effect Questionnaire (DEQ) Feel/High is widely used in studies of acute subjective response to a variety of substances, to assess two key aspects of subjective experience: (1) the strength of substance effects and (2) desirability of substance effects (Morean et al., 2013). The modified DEQ assesses the extent to which subjects (1) feel any substance effect(s) and (2) feel high. This version of the DEQ includes the following items: “Do you feel a drug effect right now?” (FEEL); “Are you high right now?” (HIGH). FIG. 2 sets out the modified DEQ that was used.
The modified DEQ was used as an 11-point numeric rating scale (0-10) administered by a qualified staff member. The subjects were asked to verbally respond to indicate how strongly they feel the drug effect and how high they feel on the scale of 0-10 after being administered the study drug (Kollltveit et al., 2020).

Data set [11] has as its system healthy females. The data set is described as follows: Phase 1 FIH study: Mystical Experience Questionnaire (MEQ30). The class given is in vivo, human. The settings on record: 33 mg. On the procedure: as §3
The Mystical Experience Questionnaire (MEQ30) is a validated questionnaire that assesses individual episodes of a mystical experience produced by classic hallucinogens (Barrett et al. 2015). The validated MEQ30 uses thirty questions across 4 areas of experience: (i) Mystical (including items concerning internal unity, external unity, noetic quality, and sacredness); (ii) Positive mood; (iii) Transcendence of time and space; and (iv) Ineffability. The subjects will be asked to rate each item of the MEQ30 on a 6-point scale. FIG. 3 sets out the revised MEQ30 that was used.

“Also recorded” adds a separate entry of the source. Counter-ions that a name gives are not always drawn.

human ether-a-go-go-related gene (hERG), sequence (Q12809 whole entry): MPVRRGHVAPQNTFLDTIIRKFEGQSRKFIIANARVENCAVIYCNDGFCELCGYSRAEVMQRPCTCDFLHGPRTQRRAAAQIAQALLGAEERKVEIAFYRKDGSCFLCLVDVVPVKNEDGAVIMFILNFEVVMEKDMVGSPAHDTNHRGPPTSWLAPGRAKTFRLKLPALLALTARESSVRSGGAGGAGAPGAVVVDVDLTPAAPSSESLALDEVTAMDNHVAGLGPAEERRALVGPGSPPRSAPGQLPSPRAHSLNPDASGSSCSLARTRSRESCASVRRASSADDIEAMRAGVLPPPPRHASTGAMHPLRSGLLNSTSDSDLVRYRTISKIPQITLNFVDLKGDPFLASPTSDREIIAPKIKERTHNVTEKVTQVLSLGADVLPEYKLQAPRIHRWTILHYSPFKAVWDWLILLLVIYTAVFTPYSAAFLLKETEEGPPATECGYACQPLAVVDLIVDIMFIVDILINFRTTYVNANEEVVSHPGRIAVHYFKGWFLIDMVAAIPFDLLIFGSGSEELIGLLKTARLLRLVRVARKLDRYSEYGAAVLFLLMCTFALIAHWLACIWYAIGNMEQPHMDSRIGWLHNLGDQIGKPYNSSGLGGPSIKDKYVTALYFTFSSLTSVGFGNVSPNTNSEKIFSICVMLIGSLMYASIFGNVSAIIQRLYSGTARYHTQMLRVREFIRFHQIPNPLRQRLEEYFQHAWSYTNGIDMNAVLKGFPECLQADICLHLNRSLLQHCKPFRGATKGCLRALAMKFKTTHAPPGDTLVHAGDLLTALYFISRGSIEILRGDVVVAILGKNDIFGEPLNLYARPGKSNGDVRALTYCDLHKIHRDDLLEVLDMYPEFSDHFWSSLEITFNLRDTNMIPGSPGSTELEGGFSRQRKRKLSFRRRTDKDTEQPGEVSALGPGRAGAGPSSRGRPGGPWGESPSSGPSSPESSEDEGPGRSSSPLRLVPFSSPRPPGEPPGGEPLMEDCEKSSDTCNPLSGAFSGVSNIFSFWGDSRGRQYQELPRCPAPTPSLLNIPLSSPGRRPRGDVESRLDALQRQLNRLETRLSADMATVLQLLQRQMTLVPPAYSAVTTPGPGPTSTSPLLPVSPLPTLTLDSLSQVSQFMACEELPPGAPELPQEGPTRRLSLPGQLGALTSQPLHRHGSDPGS

Consider `CN(C)CCc1c[nH]c2cccc(O)c12` [psilocin], for which, in data set [1], the distribution half-life was 1.95 h and the elimination half-life was 2.47 h. The “oral bioavailability in man” value in data set [2] is “approximately 53%”.

`CC(C)N(CCc1c[nH]c2cccc(OC(=O)CCCC(=O)O)c12)C(C)C` [RE104 HCl, 4-Glutaroyl-3-(2-diisopropylaminoethyl)-1H-indole hydrochloride]: the “time of neuro-pharmacological effects” value in [3] (single SC 10 mg/kg) is on record as “effects were observed at 30 minutes (min) to 1 hour (h)”; in [3] (single SC 25 mg/kg), “effects were observed to 6 h”; in [3] (single SC 50 mg/kg), “effects were noted through 6 h post-dose but were resolved by 24 h”. For the same molecule, the “decreases in minute volume” value in data set [4] is 24-31%. For the same molecule, the “decreases in tidal volume” value in data set [4] is 28-30%. In [4], the “increases in respiration rate” value is reported as 8-28%. Also, the “effects on cardiac rhythm, ECG parameters or body temperature” value in [5] (SC 1, 3 or 8 mg/kg) is “No significant biologically relevant effects”. Moreover, the “effect on heart rate and blood pressure” value is “Transient increases in heart rate and blood pressure” in data set [5] (SC 3 and 8 mg/kg); “small transient increase in heart rate but had no effect on blood pressure” in [5] (single SC 1 mg/kg). Further, the “decrease in hERG current amplitude” value in data set [6] is given as 5.9 ± 1.6%. Further, the NOAEL (commonly the highest dose or exposure tested at which no adverse effect was seen) at 14 days in data set [7] was 10 mg/kg. Besides, the “Fold Lower than Scaled NOAEL Dose” value in data set [8] (Cohort 1, 5.5 mg RE104 HCl) is reported as 19; in data set [8] (Cohort 2, 11 mg RE104 HCl), 9.7; in [8] (Cohort 3, 22 mg RE104 HCl), 4.9; in [8] (Cohort 4, 33 mg RE104 HCl), 3.2. This molecule also returned an MRSD in [8] (from rat NOAEL, 10-fold safety margin) of 9.7 mg. In [9] (SC injection in the upper arm), the “injection site adverse reactions” value is reported as “No injection site adverse reactions were reported”. In [9] (doses up to and including 44 mg), the “serious AEs” value is “no serious AEs”. In data set [9] (doses up to and including 44 mg, hydrochloride), the “blood pressure, vital sign, clinical laboratory, electrocardiogram findings” value is listed as “no evident blood pressure effects; also recorded: no clinically significant vital sign, clinical laboratory, or electrocardiogram findings”. Moreover, the “reduction of psychoactive experience relative to historical evidence with psilocybin” value in data set [10] (33 mg) is on record as 50%. The “time of peak activity” value in data set [10] (33 mg SC) was “approx 1 h”. Further, the “MEQ total score and domain scores” value in data set [11] is at least 60%.

(Values after patent US20250319067A1, “Improved Pharmacokinetics of Tryptamine Prodrugs” (Reunion Neuroscience, Inc., priority 2023, published 2025).)
